Data published in ChEMBL document CHEMBL1201862, “PubChem BioAssay data set” (2004).
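Five concentrations, 48 hours, 96-well plates. GI50 marks 50% less growth.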 Calls of active or inactive are those of the source. Rule as the data show it: active = GI50 up to about 1.1 µM and inactive = higher.

Assays:
Assay in all cases: NCI-60 cell line screen, 48 h
NCI-H522 = test system: NCI-H522
DU-145 = test system: DU-145
OVCAR-4 = test system: OVCAR-4
SF-268 = test system: SF-268
SNB-75 = test system: SNB-75
M14 = test system: M14
A498 = test system: A498
OVCAR-5 = test system: OVCAR-5
HOP-62 = test system: HOP-62
Malme-3M = test system: Malme-3M
TK-10 = test system: TK-10
MOLT-4 = test system: MOLT-4
HT-29 = test system: HT-29
SR = test system: SR
MDA-MB-435 = test system: MDA-MB-435
MDA-MB-231 = test system: MDA-MB-231
SK-MEL-28 = test system: SK-MEL-28
IGROV-1 = test system: IGROV-1
786-0 = test system: 786-0
UACC-257 = test system: UACC-257
ACHN = test system: ACHN
NCI-H460 = test system: NCI-H460
SN12C = test system: SN12C
SK-OV-3 = test system: SK-OV-3
HCC 2998 = test system: HCC 2998
SF-295 = test system: SF-295
K562 = test system: K562
HL-60 = test system: HL-60
UACC-62 = test system: UACC-62
LOX IMVI = test system: LOX IMVI
BT-549 = test system: BT-549
RXF 393 = test system: RXF 393
SK-MEL-2 = test system: SK-MEL-2
PC-3 = test system: PC-3
EKVX = test system: EKVX
NCI-H23 = test system: NCI-H23
A549 = test system: A549
COLO 205 = test system: COLO 205
KM12 = test system: KM12
U-251 = test system: U-251
MDA-N = test system: MDA-N
Hs-578T = test system: Hs-578T
HCT-116 = test system: HCT-116
T47D = test system: T47D
UO-31 = test system: UO-31
NCI-H226 = test system: NCI-H226
CCRF-CEM = test system: CCRF-CEM
CAKI-1 = test system: CAKI-1
SNB-19 = test system: SNB-19
HOP-92 = test system: HOP-92
HCT-15 = test system: HCT-15
SW-620 = test system: SW-620
SF-539 = test system: SF-539
RPMI-8226 = test system: RPMI-8226
OVCAR-3 = test system: OVCAR-3
OVCAR-8 = test system: OVCAR-8
NCI/ADR-RES = test system: NCI/ADR-RES
MCF7 = test system: MCF7
SK-MEL-5 = test system: SK-MEL-5
KM-20L2 = test system: KM-20L2
DMS-273 = test system: DMS-273
LXFL 529 = test system: LXFL 529
DLD-1 = test system: DLD-1
DMS-114 = test system: DMS-114
M19-MEL = test system: M19-MEL

With Cn1ccnc1Sc1ccc(/C=N/NC(=O)c2ccccc2[N+](=O)[O-])cc1[N+](=O)[O-] the GI50 (NCI-H522) was 38.5 µM (inactive), the GI50 (DU-145) was 66.7 µM (inactive) and the GI50 (OVCAR-4) was 57.8 µM (inactive). For the same compound, the GI50 (SF-268) was > 100 µM (inactive), the GI50 (SNB-75) was > 100 µM (inactive) and the GI50 (M14) was > 100 µM (inactive). For the same compound, the GI50 (A498) was 58.9 µM (inactive), the GI50 (OVCAR-5) was > 100 µM (inactive) and the GI50 (HOP-62) was > 100 µM (inactive). For the same compound, the GI50 (Malme-3M) was 54.6 µM (inactive), the GI50 (TK-10) was 65.3 µM (inactive) and the GI50 (MOLT-4) was 41.2 µM (inactive). The GI50 (HT-29) was 35.6 µM (inactive), the GI50 (SR) was 36.1 µM (inactive) and the GI50 (MDA-MB-435) was 66.7 µM (inactive). For the same compound, the GI50 (MDA-MB-231) was 23.1 µM (inactive), the GI50 (SK-MEL-28) was > 100 µM (inactive) and the GI50 (IGROV-1) was 37.4 µM (inactive). For the same compound, the GI50 (786-0) was 68.9 µM (inactive), the GI50 (UACC-257) was 87.5 µM (inactive) and the GI50 (ACHN) was 70.1 µM (inactive). The GI50 (NCI-H460) was 46.5 µM (inactive), the GI50 (SN12C) was 60.3 µM (inactive) and the GI50 (SK-OV-3) was > 100 µM (inactive). The GI50 (HCC 2998) was 36.7 µM (inactive), the GI50 (SF-295) was 83.8 µM (inactive) and the GI50 (K562) was 40.5 µM (inactive). The GI50 (HL-60) was 47.1 µM (inactive), the GI50 (UACC-62) was 64.3 µM (inactive) and the GI50 (LOX IMVI) was 37.3 µM (inactive). The GI50 (BT-549) was 83.9 µM (inactive), the GI50 (RXF 393) was 52.5 µM (inactive) and the GI50 (SK-MEL-2) was 29 µM (inactive). The GI50 (PC-3) was 76 µM (inactive), the GI50 (EKVX) was 40.9 µM (inactive) and the GI50 (NCI-H23) was 58.6 µM (inactive). The GI50 (A549) was > 100 µM (inactive), the GI50 (COLO 205) was 56.2 µM (inactive) and the GI50 (KM12) was 49.9 µM (inactive). For the same compound, the GI50 (U-251) was > 100 µM (inactive), the GI50 (MDA-N) was 89.1 µM (inactive) and the GI50 (Hs-578T) was > 100 µM (inactive). For the same compound, the GI50 (HCT-116) was 65.6 µM (inactive), the GI50 (T47D) was 40.6 µM (inactive) and the GI50 (UO-31) was 89.1 µM (inactive). The GI50 (NCI-H226) was > 100 µM (inactive), the GI50 (CCRF-CEM) was 42.7 µM (inactive) and the GI50 (CAKI-1) was 49.8 µM (inactive). For the same compound, the GI50 (SNB-19) was > 100 µM (inactive), the GI50 (HOP-92) was 18 µM (inactive) and the GI50 (HCT-15) was 45.7 µM. For the same compound, the GI50 (SW-620) was 98.2 µM (inactive), the GI50 (SF-539) was > 100 µM (inactive) and the GI50 (RPMI-8226) was 38.7 µM (inactive). The GI50 (OVCAR-3) was 98.9 µM (inactive), the GI50 (OVCAR-8) was > 100 µM (inactive) and the GI50 (NCI/ADR-RES) was > 100 µM (inactive). For the same compound, the GI50 (MCF7) was 59.8 µM (inactive) and the GI50 (SK-MEL-5) was 46.1 µM (inactive).
C/C(=N\NS(=O)(=O)c1ccc(C)cc1)c1cc2ccccc2n1C was tested, and the GI50 (NCI-H522) was > 100 µM (inactive), the GI50 (OVCAR-4) was > 100 µM (inactive) and the GI50 (SF-268) was 66.2 µM (inactive). The GI50 (SNB-75) was 59.2 µM (inactive), the GI50 (M14) was > 100 µM (inactive) and the GI50 (A498) was > 100 µM (inactive). The GI50 (HOP-62) was > 100 µM (inactive), the GI50 (Malme-3M) was > 100 µM (inactive) and the GI50 (MOLT-4) was > 100 µM (inactive). For the same compound, the GI50 (HT-29) was 76 µM (inactive), the GI50 (SR) was > 100 µM (inactive) and the GI50 (IGROV-1) was > 100 µM (inactive). For the same compound, the GI50 (786-0) was 68.7 µM (inactive), the GI50 (UACC-257) was > 100 µM (inactive) and the GI50 (KM-20L2) was > 100 µM (inactive). The GI50 (ACHN) was > 100 µM (inactive), the GI50 (NCI-H460) was > 100 µM (inactive) and the GI50 (SN12C) was 24.2 µM (inactive). The GI50 (DMS-273) was > 100 µM (inactive), the GI50 (HCC 2998) was > 100 µM (inactive) and the GI50 (SF-295) was > 100 µM (inactive). For the same compound, the GI50 (K562) was > 100 µM (inactive), the GI50 (HL-60) was > 100 µM (inactive) and the GI50 (UACC-62) was 76.2 µM (inactive). For the same compound, the GI50 (LOX IMVI) was > 100 µM (inactive), the GI50 (SK-MEL-2) was > 100 µM (inactive) and the GI50 (LXFL 529) was > 100 µM (inactive). For the same compound, the GI50 (EKVX) was 74.3 µM (inactive), the GI50 (NCI-H23) was > 100 µM (inactive) and the GI50 (A549) was > 100 µM (inactive). The GI50 (DLD-1) was > 100 µM (inactive), the GI50 (COLO 205) was > 100 µM (inactive) and the GI50 (KM12) was > 100 µM (inactive). For the same compound, the GI50 (U-251) was 63.8 µM (inactive), the GI50 (DMS-114) was > 100 µM (inactive) and the GI50 (HCT-116) was > 100 µM (inactive). For the same compound, the GI50 (UO-31) was > 100 µM (inactive), the GI50 (M19-MEL) was > 100 µM (inactive) and the GI50 (CCRF-CEM) was > 100 µM (inactive). For the same compound, the GI50 (SNB-19) was 69.8 µM (inactive), the GI50 (HCT-15) was > 100 µM and the GI50 (SW-620) was > 100 µM (inactive). The GI50 (SF-539) was > 100 µM (inactive), the GI50 (RPMI-8226) was > 100 µM (inactive) and the GI50 (OVCAR-8) was > 100 µM (inactive). The GI50 (SK-MEL-5) was > 100 µM (inactive).
